Experimental findings from ChEMBL document CHEMBL6134857, “Novel Spiro-Barbiturates Can Reverse the Action of General Anesthetics on the GABAAR” (J Med Chem, 2025) are described below.

Structures are written as SMILES. Calls of active or inactive are those of the source. The calls are words filed in the database; no cut-off is given here.

Type in all cases: cell membranes
For assay [1], the target named is T1, GABA-A receptor; alpha-1/beta-3/gamma-2 (Homo sapiens) (UniProt P14867+P18507+P28472). Kind of assay: Effect on [3H]muscimol binding to full length human N-terminal flag-tagged alpha1-beta3-C-terminal 1D4-tagged gamma2 GABAA receptor extracted from Tetracycline-resistant HEK293 cell membrane assessed as fold change in [3H]muscimol binding at 300 uM incubated for 30 mins. The following applies: filed as modulator.

Assay [2] deals with T1, GABA-A receptor; alpha-1/beta-3/gamma-2 (Homo sapiens). Kind of assay: Inhibition of R-mTFD-MPAB-induced [3H]muscimol binding to full length human N-terminal flag-tagged alpha1-beta3-C-terminal 1D4-tagged gamma2 GABAA receptor extracted from Tetracycline-resistant HEK293 cell membrane assessed as fold change at 300 uM incubated for 30 mins. The following applies: filed as modulator.

Assay [3] has the same target. In words: Modulation of [3H]flunitrazepam binding to full length human N-terminal flag-tagged alpha1-beta3-C-terminal 1D4-tagged gamma2 GABAA receptor extracted from Tetracycline-resistant HEK293 cell membrane assessed as fold change in [3H]flunitrazepam binding at 300 uM incubated for 30 mins. The following applies: filed as modulator.
Assay [4] has the same target. Kind of assay: Inhibition of [3H]flunitrazepam binding to full length human N-terminal flag-tagged alpha1-beta3-C-terminal 1D4-tagged gamma2 GABAA receptor extracted from Tetracycline-resistant HEK293 cell membrane assessed as reduction in [3H]flunitrazepam binding at 300 uM incubated for 30 mins relative to control.
Assay [5] has the same target. Kind of assay: Effect on [3H]muscimol binding to full length human N-terminal flag-tagged alpha1-beta3-C-terminal 1D4-tagged gamma2 GABAA receptor extracted from Tetracycline-resistant HEK293 cell membrane assessed as [3H]muscimol binding at 300 uM incubated for 30 mins relative to control.
For assay [6] the target is unchanged. Kind of assay: Inhibition of R-mTFD-MPAB-induced [3H]muscimol binding to full length human N-terminal flag-tagged alpha1-beta3-C-terminal 1D4-tagged gamma2 GABAA receptor extracted from Tetracycline-resistant HEK293 cell membrane at 300 uM incubated for 30 mins relative to control.

One may read the inhibition as how much of the control response was suppressed. For the compound `Cc1ccc2c(c1)C1(CC2)C(=O)NC(=O)N(C)C1=O` (stereo in doubt; 4h-2), the fold change (FC) was 0.37 in assay [1], 0.54 in assay [2] and 0.72 in assay [3]. In addition, the inhibition in assay [4] turned out to be 12%.
For `NC1CC2(C(=O)NC(=O)NC2=O)c2ccccc21` (racemic), the results for the fold change (FC) in assay [1] and in assay [2] were 0.1 and 0.81, respectively. The outcome in assay [5] was inactive. In assay [6], this compound yielded an inhibition of 19%.
`O=C1NC(=NO)NC(=O)C12CCc1ccccc12` (configuration not stated): the values for the fold change (FC) in assay [1] and in assay [2] were 0.07 and 0.66, respectively.
The like results for `N#CSC1CC2(C(=O)NC(=O)NC2=O)c2ccccc21` (stereo in doubt; 1y-2) were, in that order, 0.3 and 0.67.
Turning to `CN1C(=O)N(C)C(=O)C2(CCc3ccccc32)C1=O`, the fold change (FC) in assay [1] amounted to 0.07; in assay [2], 0.98.
Turning to `CN1C(=O)NC(=O)[C@@]2(CCc3ccccc32)C1=O`, the fold change (FC) came to 0.08 in assay [1], 0.78 in assay [2] and 0.56 in assay [3]. Further, the inhibition in assay [4] worked out at 12%.
In the case of `Cc1ccc2c(c1)C1(CC2)C(=O)NC(=S)NC1=O`, the results for the fold change (FC) in assay [1] and in assay [2] were 0.02 and 0.94, respectively. For the same compound, in assay [5], the Activity was under 10%. The inhibition in assay [6] is over 40%.
With `CC1Cc2ccccc2C12C(=O)NC(=O)NC2=O` (stereo in doubt; 10g-1), the fold change (FC) was found to be 0.06 in assay [1] and 0.9 in assay [2].
`CN1C(=O)NC(=O)[C@]2(CCc3ccccc32)C1=O`: the fold change (FC) in assay [1] amounted to 0.16; in assay [2], 0.67; in assay [3], 0.67. Also, the inhibition in assay [4] was found to be 12%.
For `N=C1NC(=O)C2(CCc3ccc(F)cc32)C(=O)N1` (configuration not stated), the fold change (FC) in assay [1] was -0.02; in assay [2], 0.58. The Activity in assay [5] was under 10%. Moreover, the inhibition in assay [6] was over 40%.
For the compound `CN1C(=O)NC(=O)C2(CCCc3ccccc32)C1=O` (stereo in doubt; 2h-2), the fold change (FC) in assay [1] is -0.01; in assay [2], 0.8.
Consider `Cc1ccc2c(c1)C1(CC2)C(=O)NC(=N)NC1=O` (configuration not stated), for which the fold change (FC) is -0.09 in assay [1] and 0.36 in assay [2]. In addition, in assay [5], the Activity is under 10%. For the same compound, the inhibition in assay [6] was over 40%.
For `CCC1(c2ccccc2)C(=O)NC(=O)NC1=O`, the fold change (FC) in assay [1] turned out to be 0.43; in assay [2], 0.88. For the same compound, in assay [5] (filed as modulator), the Activity was 43%. The compound also yielded an inhibition in assay [6] of 12%.
Consider `Cc1ccc2c(c1)C1(CC2)C(=O)NC(=O)N(C)C1=O` (stereo in doubt; 4h-1), for which the fold change (FC) is 0.15 in assay [1], 0.88 in assay [2] and 0.76 in assay [3]. Besides, the inhibition in assay [4] amounted to 12%.
The like results for `CN1C(=O)NC(=O)C2(CCc3ccc(Br)cc32)C1=O` (stereo in doubt; 6h-1) were, in that order, 0.4, 0.99, 0.65 and 12%.
Turning to `O=C1NC(=O)C2(CCc3ccc(Cl)cc32)C(=O)N1`, the fold change (FC) in assay [1] turned out to be 0.15; in assay [2], 0.88. Moreover, the Activity in assay [5] was under 10%. In assay [6], this compound registered an inhibition of over 40%.
Regarding `COc1ccc2c(c1)C1(CC2)C(=O)NC(=S)NC1=O`, the fold change (FC) in assay [1] was 0.2; in assay [2], 1.04. In addition, the Activity in assay [5] is under 10%. Also, the inhibition in assay [6] is over 40%.
Turning to `CC(C)c1ccc2c(c1)C1(CC2)C(=O)NC(=O)N(C)C1=O` (stereo in doubt; 5h-2), the fold change (FC) in assay [1] amounted to 0.14; in assay [2], 0.97; in assay [3], 0.59. In addition, the inhibition in assay [4] amounted to 12%.
As to `O=C1NC(=S)NC(=O)C12CCc1ccccc12`, the figures for the fold change (FC) in assay [1] and in assay [2] were 0.02 and 0.78, respectively.
Consider `NN=C1NC(=O)C2(CCc3ccccc32)C(=O)N1` (configuration not stated), for which the fold change (FC) in assay [1] is -0.02; in assay [2], 0.66.
For `O=C1NC(=O)C2(CCc3ccc(F)cc32)C(=O)N1`, the fold change (FC) is 0.07 in assay [1] and 0.73 in assay [2]. Moreover, the Activity in assay [5] was under 10%. In assay [6], this compound returned an inhibition of over 40%.
For the compound `O=C1NC(=O)C2(CC(O)c3ccccc32)C(=O)N1` (stereo in doubt; 1t-2), the figures for the fold change (FC) in assay [1] and in assay [2] were 0.02 and 0.55, respectively. Also, in assay [5], the outcome was inactive. For the same compound, the inhibition in assay [6] amounted to 45%.
Turning to `N#CSC1CC2(C(=O)NC(=O)NC2=O)c2ccccc21` (stereo in doubt; 1y-1), the fold change (FC) in assay [1] was found to be 0.2; in assay [2] it was 0.61.
For the compound `CC1Cc2ccccc2C12C(=O)NC(=O)NC2=O` (stereo in doubt; 10g-2), the fold change (FC) in assay [1] was 0.13; in assay [2], 0.95.
Turning to `N=C1NC(=O)C2(CCc3ccc(Br)cc32)C(=O)N1` (configuration not stated), the figures for the fold change (FC) in assay [1] and in assay [2] were 0.03 and 0.53, respectively. Moreover, the Activity in assay [5] was under 10%. This compound also came in with an inhibition in assay [6] of over 40%.
On to `COc1ccc2c(c1)C1(CC2)C(=O)NC(=O)N(C)C1=O` (stereo in doubt; 7h-1), for which the results for the fold change (FC) in assay [1], in assay [2] and in assay [3] were 0.36, 1.06 and 0.55, respectively. Besides, in assay [4], the inhibition stood at 45%.
On to `CCN1C(=O)NC(=O)C2(CCc3ccccc32)C1=O` (stereo in doubt; 1i-1), for which the fold change (FC) in assay [1] amounted to 0.05; in assay [2], 0.86.
As to `O=C1NC(=O)C2(CCc3ccc(Br)cc32)C(=O)N1`, the results for the fold change (FC) in assay [1] and in assay [2] were 0.05 and 0.9, respectively. The Activity in assay [5] is under 10%. In addition, the inhibition in assay [6] was over 40%.
Turning to `CN1C(=O)NC(=O)C2(CCc3ccc(Br)cc32)C1=O` (stereo in doubt; 6h-2), the fold change (FC) amounted to 0.35 in assay [1], 1.09 in assay [2] and 0.61 in assay [3]. Moreover, the inhibition in assay [4] was found to be 12%.
On to `N=C1NC(=O)C2(CCc3ccc(Cl)cc32)C(=O)N1` (configuration not stated), for which the fold change (FC) stood at 0.02 in assay [1] and 0.53 in assay [2]. Further, the Activity in assay [5] is under 10%. Also, in assay [6], the inhibition was over 40%.
As to `COc1ccc2c(c1)C1(CC2)C(=O)NC(=O)NC1=O`, the fold change (FC) in assay [1] was 0; in assay [2] it was 0.69. The Activity in assay [5] is under 10%. In addition, the inhibition in assay [6] is over 40%.
For `O=C1NC(=O)C2(CC(O)c3ccccc32)C(=O)N1` (stereo in doubt; 1t-1), the fold change (FC) amounted to 0 in assay [1] and 0.98 in assay [2].
Consider `Cc1ccc2c(c1)C1(CC2)C(=O)NC(=O)NC1=O`, for which the fold change (FC) in assay [1] stood at 0.06; in assay [2], 0.87. For the same compound, the Activity in assay [5] was under 10%. Besides, the inhibition in assay [6] is over 40%.
Regarding `CC1CC2(C(=O)NC(=O)NC2=O)c2ccccc21` (stereo in doubt; 11g-1), the values for the fold change (FC) in assay [1] and in assay [2] were 0.06 and 0.96, respectively.
With `O=C1NC(=S)NC(=O)C12CCc1ccc(Br)cc12`, the figures for the fold change (FC) in assay [1] and in assay [2] were 0.43 and 0.74, respectively. Besides, the Activity in assay [5] is under 10%. The inhibition in assay [6] was over 40%.
With `CCN1C(=O)NC(=O)C2(CCc3ccccc32)C1=O` (stereo in doubt; 1i-2), the figures for the fold change (FC) in assay [1] and in assay [2] were 0.11 and 0.86, respectively.
The like results for `CN1C(=O)NC(=O)C2(CCCCc3ccccc32)C1=O` (stereo in doubt; 3h-1) were, in that order, 0.32 and 0.93.
Regarding `CCCN1C(=O)NC(=O)C2(CCc3ccccc32)C1=O` (stereo in doubt; 1j-1), the fold change (FC) in assay [1] came out at 0.31; in assay [2], 0.95.
Turning to `CC(C)c1ccc2c(c1)C1(CC2)C(=O)NC(=S)NC1=O`, the results for the fold change (FC) in assay [1] and in assay [2] were 0.54 and 0.87, respectively. Moreover, the Activity in assay [5] was under 10%. In assay [6], the inhibition was over 40%.
Take `CCCN1C(=O)NC(=O)C2(CCc3ccccc32)C1=O` (stereo in doubt; 1j-2): the fold change (FC) in assay [1] came out at 0.05; in assay [2], 0.95.
Take `CN1C(=O)NC(=O)C2(CCCc3ccccc32)C1=O` (stereo in doubt; 2h-1): the fold change (FC) in assay [1] stood at 0.13; in assay [2], 0.9.
The like results for `CN1C(=O)NC(=O)C2(CCCCc3ccccc32)C1=O` (stereo in doubt; 3h-2) were, in that order, 0.1 and 0.98.
As to `O=C1NC(=O)C2(CCCc3ccccc32)C(=O)N1`, the fold change (FC) worked out at 0.08 in assay [1], 0.97 in assay [2] and 0.45 in assay [3]. Further, the inhibition in assay [4] came out at 12%.
Take `COc1ccc2c(c1)C1(CC2)C(=O)NC(=O)N(C)C1=O` (stereo in doubt; 7h-2): the values for the fold change (FC) in assay [1], in assay [2] and in assay [3] were 0.37, 0.73 and 0.88, respectively. The inhibition in assay [4] was 12%.
On to `CC1CC2(C(=O)NC(=O)NC2=O)c2ccccc21` (stereo in doubt; 11g-2), for which the fold change (FC) is 0.15 in assay [1] and 0.99 in assay [2].
